Measured values from publication PMC12086749, “Design, synthesis, and evaluation of peptide‐imidazo[1,2‐a]pyrazine bioconjugates as potential bivalent inhibitors of the VirB11 ATPase HP0525” (Journal of Peptide Science, 2021).
pIC50: −log10 of the molar value.

Molecular target: VirB11 ATPase HP0525 (Helicobacter pylori, UniProt Q7BK04)
Assay: in vitro ATPase colorimetric assay of HP0525
Type: biochemical
Settings: for inhibition of HP0525 (in words): qualitative statement
Procedure: The HP0525 protein was produced in the E. coli strain BL21 Star (DE3) (Invitrogen) as described previously.[39] The protein concentration was estimated spectroscopically using a NanoDrop (Thermo Scientific) and a calculated extinction coefficient at 280 nm, based on the amino acid composition. The ATPase activity of HP0525 was measured, with and without a specific amount of compound present, using an in vitro ATPase colorimetric assay kit (Innova Biosciences). The assay was performed in 96‐well ELISA microplates (Greiner Bio‐One), using a multipipette/robot.
A volume of 49 μl of a substrate/buffer solution (200 mM tris(hydroxymethyl)aminomethane [TRIS], pH 7.5; 5 mM MgCl2; 250 μM ATP; and 10% DMSO) was added to each assigned well, followed by the addition of 1 μl of compound (at 0.5; 5 or 50 mM to achieve the final concentrations of 5; 50 and 500 μM in the reaction, respectively) in DMSO (or 1 μl DMSO to controls). The solutions were mixed carefully by pipetting. The reaction was started by the addition of 50 μl of 0.106 μM HP0525 to each well (except the negative control, see text below), and the reaction plate was directly transferred to 37°C for 30 min of incubation. The reaction was stopped by the addition of the gold mix according to the standard protocol of the kit. The absorbance at 620 nm was measured after 30 min at RT. For each compound, the percentage of absorbance relative to non‐inhibited HP0525 was calculated, after subtracting the absorbance value of the negative control. In the negative control, the protein was added after the gold mix, as described in the standard protocol of the kit, which when used as a blank corrects for all free Pi not produced by the enzyme during the 30 min incubation at 37°C. A known inhibitor of HP0525 (CHIR02)[26] was used as a control inhibitor. All measurements were made in duplicate.
Each compound was screened on three separate plates, and each plate was read twice, and a mean was calculated for each concentration. The data were normalized by subtracting the negative control (0% active) and relating it to the positive control (100% active). The software GraphPad Prism 5 was used to generate two dose–response curves (Log [inhibitor] vs. normalized response [standard and variable slope]), and the IC50 values were calculated from each.

Chain of VirB11 ATPase HP0525 (Q7BK04 entry or part of it): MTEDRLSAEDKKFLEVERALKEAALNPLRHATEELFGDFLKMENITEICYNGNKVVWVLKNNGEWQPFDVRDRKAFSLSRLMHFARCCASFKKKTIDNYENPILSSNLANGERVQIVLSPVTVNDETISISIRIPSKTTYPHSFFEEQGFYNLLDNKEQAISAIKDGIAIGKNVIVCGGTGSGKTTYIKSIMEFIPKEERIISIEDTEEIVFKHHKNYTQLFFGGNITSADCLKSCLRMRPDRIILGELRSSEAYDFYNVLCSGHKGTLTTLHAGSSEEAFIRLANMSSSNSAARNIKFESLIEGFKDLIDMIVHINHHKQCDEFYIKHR

Row | Compound | pIC50 | inhibition of HP0525 (in words)
1 | C=CCOCCOC(=O)Nc1ccc(S(=O)(=O)Nc2nccn3cc(-c4ccc5ccccc5c4)nc23)cc1 [Compound 15] | 4.34 | improved inhibition
2 | NCCOCCOC(=O)Nc1ccc(S(=O)(=O)Nc2nccn3cc(-c4ccc5ccccc5c4)nc23)cc1 [Compound 27] | 3.86 | poor inhibition
3 | O=C(CCN1C(=O)C=CC1=O)NCCOCCOC(=O)Nc1ccc(S(=O)(=O)Nc2nccn3cc(-c4ccc5ccccc5c4)nc23)cc1 [Compound 17] | 4.74 | improved inhibition
4 | C#CCOCCOC(=O)Nc1ccc(S(=O)(=O)Nc2nccn3cc(-c4ccc5ccccc5c4)nc23)cc1 [Compound 16] | 4.21 | improved inhibition
